Data from the supplement of paper PMC4862054.

Test system: MDA-MB-436
Assay: normalised viability (% of control), CellTiter-Blue; higher = more viable cells (about 100 = DMSO control)
Conditions: 100 nM; incubation time: 72 h
Outline: (§1)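 Breast cancer cell lines in 20 µl suspension were seeded onto 384-well plates pre-loaded with compound dissolved in 5 µl medium, then incubated 72 h. CellTiter-Blue reagent (2.5 µl) was added for 2 h at 37 °C and fluorescence read at 560/590 nm. Each plate was normalised to vehicle (100) and a positive kill control (0), with Z'-factor quality control. The value is normalised viability at one listed concentration of the series.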

Compound | normalised viability [%]
CN(N=O)C(=O)N[C@@H](C=O)[C@@H](O)[C@H](O)[C@H](O)CO [Streptozocin] | 101

Same assay, conditions: 400 nM; incubation time: 72 h

Compound | normalised viability [%]
N[C@@H](CSC(c1ccccc1)(c1ccccc1)c1ccccc1)C(=O)O [S-trityl-L-cysteine] | 98.6

Test system: MDA-MB-453
Assay: as above
Conditions: 1 nM; incubation time: 72 h
Outline: as §1

Compound | normalised viability [%]
Cn1c(Nc2ccc(C(F)(F)F)cc2)nc2cc(Oc3ccnc(-c4ncc(C(F)(F)F)[nH]4)c3)ccc21 [RAF265] | 100
Cc1ccc(C(=O)N(CCCN)[C@@H](c2oc3cc(Cl)ccc3c(=O)c2Cc2ccccc2)C(C)C)cc1 | 112

Same assay, conditions: 10 nM; incubation time: 72 h

Compound | normalised viability [%]
CNCc1ccc(-c2[nH]c3cc(F)cc4c3c2CCNC4=O)cc1 [Rucaparib] | 98.8
C[C@]12CC[C@@H]3c4ccc(O)cc4C[C@@H](CCCCCCCCC[S+]([O-])CCCC(F)(F)C(F)(F)F)[C@H]3[C@@H]1CC[C@@H]2O (some centres undefined) [Fulvestrant] | 81.3
CN(C)/N=N/c1[nH]cnc1C(N)=O [Dacarbazine] | 99.2
CC(C)Cn1cnc2c(N)nc3ccccc3c21 [Imiquimod] | 112
C#Cc1cccc(Nc2ncnc3cc(OCCOC)c(OCCOC)cc23)c1 [Erlotinib] | 114
O=P1(NCCCl)OCCCN1CCCl (centres undefined) [Ifosfamide] | 99.8
Cc1ccc(-n2nc(C(C)(C)C)cc2NC(=O)Nc2ccc(OCCN3CCOCC3)c3ccccc23)cc1 [Doramapimod] | 106
COc1cc([C@@H]2c3cc4c(cc3[C@@H](O[C@@H]3O[C@@H]5CO[C@@H](C)O[C@H]5[C@H](O)[C@H]3O)[C@H]3COC(=O)[C@H]23)OCO4)cc(OC)c1O [Etoposide] | 108
CN(N=O)C(=O)N[C@@H](C=O)[C@@H](O)[C@H](O)[C@H](O)CO [Streptozocin] | 112

Same assay, conditions: 40 nM; incubation time: 72 h

Compound | normalised viability [%]
N[C@@H](CSC(c1ccccc1)(c1ccccc1)c1ccccc1)C(=O)O [S-trityl-L-cysteine] | 88.8

Test system: MDA-MB-468
Assay: as above
Conditions: 10 nM; incubation time: 72 h
Outline: as §1

Compound | normalised viability [%]
Cn1c(Nc2ccc(C(F)(F)F)cc2)nc2cc(Oc3ccnc(-c4ncc(C(F)(F)F)[nH]4)c3)ccc21 [RAF265] | 104
Cc1ccc(C(=O)N(CCCN)[C@@H](c2oc3cc(Cl)ccc3c(=O)c2Cc2ccccc2)C(C)C)cc1 | 29.1

Same assay, conditions: 100 nM; incubation time: 72 h

Compound | normalised viability [%]
CNCc1ccc(-c2[nH]c3cc(F)cc4c3c2CCNC4=O)cc1 [Rucaparib] | 110
C[C@]12CC[C@@H]3c4ccc(O)cc4C[C@@H](CCCCCCCCC[S+]([O-])CCCC(F)(F)C(F)(F)F)[C@H]3[C@@H]1CC[C@@H]2O (some centres undefined) [Fulvestrant] | 87.2
CN(C)/N=N/c1[nH]cnc1C(N)=O [Dacarbazine] | 112
CC(C)Cn1cnc2c(N)nc3ccccc3c21 [Imiquimod] | 106
C#Cc1cccc(Nc2ncnc3cc(OCCOC)c(OCCOC)cc23)c1 [Erlotinib] | 95
O=P1(NCCCl)OCCCN1CCCl (centres undefined) [Ifosfamide] | 98.7
Cc1ccc(-n2nc(C(C)(C)C)cc2NC(=O)Nc2ccc(OCCN3CCOCC3)c3ccccc23)cc1 [Doramapimod] | 98
COc1cc([C@@H]2c3cc4c(cc3[C@@H](O[C@@H]3O[C@@H]5CO[C@@H](C)O[C@H]5[C@H](O)[C@H]3O)[C@H]3COC(=O)[C@H]23)OCO4)cc(OC)c1O [Etoposide] | 94.2
CN(N=O)C(=O)N[C@@H](C=O)[C@@H](O)[C@H](O)[C@H](O)CO [Streptozocin] | 106

Same assay, conditions: 400 nM; incubation time: 72 h

Compound | normalised viability [%]
N[C@@H](CSC(c1ccccc1)(c1ccccc1)c1ccccc1)C(=O)O [S-trityl-L-cysteine] | 101

Test system: MFM-223
Assay: as above
Conditions: 10 nM; incubation time: 72 h
Outline: as §1

Compound | normalised viability [%]
Cn1c(Nc2ccc(C(F)(F)F)cc2)nc2cc(Oc3ccnc(-c4ncc(C(F)(F)F)[nH]4)c3)ccc21 [RAF265] | 88
Cc1ccc(C(=O)N(CCCN)[C@@H](c2oc3cc(Cl)ccc3c(=O)c2Cc2ccccc2)C(C)C)cc1 | 41.6

Same assay, conditions: 100 nM; incubation time: 72 h

Compound | normalised viability [%]
CNCc1ccc(-c2[nH]c3cc(F)cc4c3c2CCNC4=O)cc1 [Rucaparib] | 109
C[C@]12CC[C@@H]3c4ccc(O)cc4C[C@@H](CCCCCCCCC[S+]([O-])CCCC(F)(F)C(F)(F)F)[C@H]3[C@@H]1CC[C@@H]2O (some centres undefined) [Fulvestrant] | 70.4
CN(C)/N=N/c1[nH]cnc1C(N)=O [Dacarbazine] | 88.8
CC(C)Cn1cnc2c(N)nc3ccccc3c21 [Imiquimod] | 91.2
C#Cc1cccc(Nc2ncnc3cc(OCCOC)c(OCCOC)cc23)c1 [Erlotinib] | 88.5
O=P1(NCCCl)OCCCN1CCCl (centres undefined) [Ifosfamide] | 81.2
Cc1ccc(-n2nc(C(C)(C)C)cc2NC(=O)Nc2ccc(OCCN3CCOCC3)c3ccccc23)cc1 [Doramapimod] | 109
COc1cc([C@@H]2c3cc4c(cc3[C@@H](O[C@@H]3O[C@@H]5CO[C@@H](C)O[C@H]5[C@H](O)[C@H]3O)[C@H]3COC(=O)[C@H]23)OCO4)cc(OC)c1O [Etoposide] | 98.7
CN(N=O)C(=O)N[C@@H](C=O)[C@@H](O)[C@H](O)[C@H](O)CO [Streptozocin] | 90.6

Same assay, conditions: 400 nM; incubation time: 72 h

Compound | normalised viability [%]
N[C@@H](CSC(c1ccccc1)(c1ccccc1)c1ccccc1)C(=O)O [S-trityl-L-cysteine] | 99.8

Test system: SK-BR-3
Assay: as above
Conditions: 10 nM; incubation time: 72 h
Outline: as §1

Compound | normalised viability [%]
Cn1c(Nc2ccc(C(F)(F)F)cc2)nc2cc(Oc3ccnc(-c4ncc(C(F)(F)F)[nH]4)c3)ccc21 [RAF265] | 102
Cc1ccc(C(=O)N(CCCN)[C@@H](c2oc3cc(Cl)ccc3c(=O)c2Cc2ccccc2)C(C)C)cc1 | 18

Same assay, conditions: 100 nM; incubation time: 72 h

Compound | normalised viability [%]
CNCc1ccc(-c2[nH]c3cc(F)cc4c3c2CCNC4=O)cc1 [Rucaparib] | 76.4
C[C@]12CC[C@@H]3c4ccc(O)cc4C[C@@H](CCCCCCCCC[S+]([O-])CCCC(F)(F)C(F)(F)F)[C@H]3[C@@H]1CC[C@@H]2O (some centres undefined) [Fulvestrant] | 94.3
CN(C)/N=N/c1[nH]cnc1C(N)=O [Dacarbazine] | 86.9
CC(C)Cn1cnc2c(N)nc3ccccc3c21 [Imiquimod] | 112
